Test results as given in ChEMBL document CHEMBL3611972, “Leishmanicidal, antiproteolytic, and mutagenic evaluation of alkyltriazoles and alkylphosphocholines” (Eur J Med Chem, 2015).

Tests used:
Salmonella typhimurium [1] = assay: Mutagenicity in Salmonella typhimurium TA97a assessed as mutagenicity index at 1185.19 uM/plate incubated for 90 mins at 37 degC in presence of liver S9 fractions by Ames test relative to control; assay type: toxicity, organism-based; conditions: salmonella enterica subsp. enterica serovar typhimurium, s9, 1.5 h
Salmonella typhimurium [2] = assay: Mutagenicity in Salmonella typhimurium TA98 assessed as mutagenicity index at 1185.19 uM/plate incubated for 90 mins at 37 degC in presence of liver S9 fractions by Ames test relative to control; assay type: toxicity, organism-based; conditions: salmonella enterica subsp. enterica serovar typhimurium, s9, 1.5 h
Salmonella typhimurium [3] = assay: Mutagenicity in Salmonella typhimurium TA100 assessed as mutagenicity index at 616.38 uM/plate incubated for 90 mins at 37 degC in presence of liver S9 fractions by Ames test relative to control; assay type: toxicity, organism-based; conditions: salmonella enterica subsp. enterica serovar typhimurium, s9, 1.5 h
Salmonella typhimurium [4] = assay: Mutagenicity in Salmonella typhimurium TA102 assessed as mutagenicity index at 1185.19 uM/plate incubated for 90 mins at 37 degC in absence of liver S9 fractions by Ames test relative to control; assay type: toxicity, organism-based; conditions: salmonella enterica subsp. enterica serovar typhimurium, 1.5 h
Salmonella typhimurium [5] = assay: Mutagenicity in Salmonella typhimurium TA100 assessed as mutagenicity index at 1454.55 uM/plate incubated for 90 mins at 37 degC in absence of liver S9 fractions by Ames test relative to control; assay type: toxicity, organism-based; conditions: salmonella enterica subsp. enterica serovar typhimurium, 1.5 h
Salmonella typhimurium [6] = assay: Mutagenicity in Salmonella typhimurium TA98 assessed as mutagenicity index at 905.66 uM/plate incubated for 90 mins at 37 degC in presence of liver S9 fractions by Ames test relative to control; assay type: toxicity, organism-based; conditions: salmonella enterica subsp. enterica serovar typhimurium, s9, 1.5 h
Salmonella typhimurium [7] = assay: Mutagenicity in Salmonella typhimurium TA98 assessed as mutagenicity index at 616.38 uM/plate incubated for 90 mins at 37 degC in absence of liver S9 fractions by Ames test relative to control; assay type: toxicity, organism-based; conditions: salmonella enterica subsp. enterica serovar typhimurium, 1.5 h
Salmonella typhimurium [8] = assay: Mutagenicity in Salmonella typhimurium TA100 assessed as mutagenicity index at 313.73 uM/plate incubated for 90 mins at 37 degC in absence of liver S9 fractions by Ames test relative to control; assay type: toxicity, organism-based; conditions: salmonella enterica subsp. enterica serovar typhimurium, 1.5 h
Salmonella typhimurium [9] = assay: Mutagenicity in Salmonella typhimurium TA97a assessed as mutagenicity index at 313.73 uM/plate incubated for 90 mins at 37 degC in absence of liver S9 fractions by Ames test relative to control; assay type: toxicity, organism-based; conditions: salmonella enterica subsp. enterica serovar typhimurium, 1.5 h
Salmonella typhimurium [10] = assay: Mutagenicity in Salmonella typhimurium TA102 assessed as mutagenicity index at 1185.19 uM/plate incubated for 90 mins at 37 degC in presence of liver S9 fractions by Ames test relative to control; assay type: toxicity, organism-based; conditions: salmonella enterica subsp. enterica serovar typhimurium, s9, 1.5 h
Salmonella typhimurium [11] = assay: Mutagenicity in Salmonella typhimurium TA97a assessed as mutagenicity index at 616.38 uM/plate incubated for 90 mins at 37 degC in absence of liver S9 fractions by Ames test relative to control; assay type: toxicity, organism-based; conditions: salmonella enterica subsp. enterica serovar typhimurium, 1.5 h
Salmonella typhimurium [12] = assay: Mutagenicity in Salmonella typhimurium TA102 assessed as mutagenicity index at 616.38 uM/plate incubated for 90 mins at 37 degC in presence of liver S9 fractions by Ames test relative to control; assay type: toxicity, organism-based; conditions: salmonella enterica subsp. enterica serovar typhimurium, s9, 1.5 h
Salmonella typhimurium [13] = assay: Mutagenicity in Salmonella typhimurium TA98 assessed as mutagenicity index at 616.38 uM/plate incubated for 90 mins at 37 degC in presence of liver S9 fractions by Ames test relative to control; assay type: toxicity, organism-based; conditions: salmonella enterica subsp. enterica serovar typhimurium, s9, 1.5 h
[14] = Mutagenicity in CHOK1 cells assessed as induction of chromosomal DNA mutation by measuring micronuclei level at 14.51 to 58.04 incubated for 3 hrs by cytokinesis-block micronucleus assay; assay type: toxicity, cell-based, Cricetulus griseus; conditions: chinese hamster, cho-k1, 3 h
Salmonella typhimurium [15] = assay: Mutagenicity in Salmonella typhimurium TA102 assessed as mutagenicity index at 313.73 uM/plate incubated for 90 mins at 37 degC in presence of liver S9 fractions by Ames test relative to control; assay type: toxicity, organism-based; conditions: salmonella enterica subsp. enterica serovar typhimurium, s9, 1.5 h
Salmonella typhimurium [16] = assay: Mutagenicity in Salmonella typhimurium TA97a assessed as mutagenicity index at 435.85 uM/plate incubated for 90 mins at 37 degC in presence of liver S9 fractions by Ames test relative to untreated control; assay type: toxicity, organism-based; conditions: salmonella enterica subsp. enterica serovar typhimurium, s9, 1.5 h
[17] = Mutagenicity in CHOK1 cells assessed as induction of chromosomal DNA mutation by measuring nuclear division index level at 6.41 to 25.63 incubated for 3 hrs by fluorescence microscopy; assay type: toxicity, cell-based, Cricetulus griseus; conditions: chinese hamster, cho-k1, 3 h
Salmonella typhimurium [18] = assay: Mutagenicity in Salmonella typhimurium TA98 assessed as mutagenicity index at 570.37 uM/plate incubated for 90 mins at 37 degC in presence of liver S9 fractions by Ames test relative to untreated control; assay type: toxicity, organism-based; conditions: salmonella enterica subsp. enterica serovar typhimurium, s9, 1.5 h
Salmonella typhimurium [19] = assay: Mutagenicity in Salmonella typhimurium TA97a assessed as mutagenicity index at 435.85 uM/plate incubated for 90 mins at 37 degC in absence of liver S9 fractions by Ames test relative to untreated control; assay type: toxicity, organism-based; conditions: salmonella enterica subsp. enterica serovar typhimurium, 1.5 h
Salmonella typhimurium [20] = assay: Mutagenicity in Salmonella typhimurium TA100 assessed as mutagenicity index at 296.15 uM/plate incubated for 90 mins at 37 degC in presence of liver S9 fractions by Ames test relative to untreated control; assay type: toxicity, organism-based; conditions: salmonella enterica subsp. enterica serovar typhimurium, s9, 1.5 h
Salmonella typhimurium [21] = assay: Mutagenicity in Salmonella typhimurium TA97a assessed as mutagenicity index at 700.00 uM/plate incubated for 90 mins at 37 degC in absence of liver S9 fractions by Ames test relative to untreated control; assay type: toxicity, organism-based; conditions: salmonella enterica subsp. enterica serovar typhimurium, 1.5 h
Salmonella typhimurium [22] = assay: Mutagenicity in Salmonella typhimurium TA97a assessed as mutagenicity index at 150.98 uM/plate incubated for 90 mins at 37 degC in presence of liver S9 fractions by Ames test relative to untreated control; assay type: toxicity, organism-based; conditions: salmonella enterica subsp. enterica serovar typhimurium, s9, 1.5 h
Salmonella typhimurium [23] = assay: Mutagenicity in Salmonella typhimurium TA100 assessed as mutagenicity index at 570.37 uM/plate incubated for 90 mins at 37 degC in presence of liver S9 fractions by Ames test relative to untreated control; assay type: toxicity, organism-based; conditions: salmonella enterica subsp. enterica serovar typhimurium, s9, 1.5 h
Salmonella typhimurium [24] = assay: Mutagenicity in Salmonella typhimurium TA98 assessed as mutagenicity index at 700.00 uM/plate incubated for 90 mins at 37 degC in absence of liver S9 fractions by Ames test relative to untreated control; assay type: toxicity, organism-based; conditions: salmonella enterica subsp. enterica serovar typhimurium, 1.5 h
Salmonella typhimurium [25] = assay: Mutagenicity in Salmonella typhimurium TA97a assessed as mutagenicity index at 296.15 uM/plate incubated for 90 mins at 37 degC in presence of liver S9 fractions by Ames test relative to untreated control; assay type: toxicity, organism-based; conditions: salmonella enterica subsp. enterica serovar typhimurium, s9, 1.5 h
Salmonella typhimurium [26] = assay: Mutagenicity in Salmonella typhimurium TA102 assessed as mutagenicity index at 150.98 uM/plate incubated for 90 mins at 37 degC in absence of liver S9 fractions by Ames test relative to untreated control; assay type: toxicity, organism-based; conditions: salmonella enterica subsp. enterica serovar typhimurium, 1.5 h

CCOC(=O)c1cn(CCCCCCCCCOS(C)(=O)=O)nn1
Activity_index (Salmonella typhimurium [1]): 0.7
Activity_index (Salmonella typhimurium [2]): 0.8
Activity_index (Salmonella typhimurium [3]): 1
Activity_index (Salmonella typhimurium [4]): 1.2
Activity_index (Salmonella typhimurium [5]): 1.2
Activity_index (Salmonella typhimurium [6]): 1
Activity_index (Salmonella typhimurium [7]): 1.2
Activity_index (Salmonella typhimurium [8]): 1.2
Activity_index (Salmonella typhimurium [9]): 1.3
Activity_index (Salmonella typhimurium [10]): 1.4
Activity_index (Salmonella typhimurium [11]): 1.6
Activity_index (Salmonella typhimurium [12]): 1.7
Activity_index (Salmonella typhimurium [13]): 0.8
Activity [14]: Non-toxic
Activity_index (Salmonella typhimurium [15]): 1.4

CS(=O)(=O)OCCCCCCCCCCCCn1cc(CCCO)nn1
Activity_index (Salmonella typhimurium [16]): 0.9
Activity [17]: Non-toxic
Activity_index (Salmonella typhimurium [18]): 0.8
Activity_index (Salmonella typhimurium [19]): 1.2
Activity_index (Salmonella typhimurium [20]): 0.9
Activity_index (Salmonella typhimurium [21]): 1.1
Activity_index (Salmonella typhimurium [22]): 0.9
Activity_index (Salmonella typhimurium [23]): 0.8
Activity_index (Salmonella typhimurium [24]): 1.3
Activity_index (Salmonella typhimurium [25]): 0.9
Activity_index (Salmonella typhimurium [26]): 1.1
